According to patent US20240376073A1 (Hoffmann-La Roche Inc., priority 2021, published 2024):
Where a name gives a salt, the structure may show the parent alone. Read-outs that look alike come from different tables or passages of the source.

System: Acinetobacter baumannii ATCC17961
Assay: Antimicrobial susceptibility testing: 90% growth inhibitory concentration (IC90) determination
Format: cell-based
Details: Iso-Sensitest broth, growth by OD 600 nm over 16 h, 35±2° C.
Method in brief: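 Twofold serial dilutions (e.g. 50 to 0.097 μM final) in Iso-Sensitest broth, inoculated at ~5×10^(5) CFU/ml, incubated at 35±2° C. OD600 read every 20 min over 16 h; IC90 derived from growth inhibition during logarithmic growth.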

[1] = Acinetobacter baumannii ATCC17961, read-out: ATCC 17961 IC90
[2] = Acinetobacter baumannii, ATCC17961, 16 h, read-out: ATCC 17961 IC90, Acinetobacter baumannii ATCC17961

Row | Compound | IC90 [1] | other results
1 | COc1ccc(-c2cnc(C(=O)Nc3ccc(C(=O)NCc4cnc(NC(=O)C5CCC[N+]5(C)C)s4)c(Cl)c3)n2C)c(F)c1F (stereo not drawn) [Example A28, N-[3-chloro-4-[2-[(1,1-dimethylpyrrolidin-1-ium-2-carbonyl)amino]thiazol-5-yl]methylcarbamoyl]phenyl]-5-(2,3-difluoro-4-methoxy-phenyl)-1-methyl-imidazole-2-carboxamide; formate] | 88 nM | 
2 | COc1ccc(-c2cnc(C(=O)Nc3ccc(C(=O)N4CCN(C(=O)C5C[C@H](O)C[N+]5(C)C)CC4)c(Cl)c3)n2C)c(F)c1F (stereo in doubt) [Example B37, N-[3-chloro-4-[4-[(2R,4S)-4-hydroxy-1,1-dimethyl-pyrrolidin-1-ium-2-carbonyl]piperazine-1-carbonyl]phenyl]-5-(2,3-difluoro-4-methoxy-phenyl)-1-methyl-imidazole-2-carboxamide; formate] |  | IC90 (read-out: ATCC 17961 IC90, Acinetobacter baumannii ATCC17961, formate): 190 nM
3 | COc1ccc(-c2cnc(C(=O)Nc3ccc(C(=O)N4CCC(C(=O)NCc5cnc(NC(=O)C6CC[N+](C)(C)CC6)s5)CC4)c(Cl)c3)n2C)c(F)c1F [Example A31, N-[5-[[1-[2-chloro-4-[[5-(2,3-difluoro-4-methoxy-phenyl)-1-methyl-imidazole-2-carbonyl]amino]benzoyl]piperidine-4-carbonyl]amino]methyl]thiazol-2-yl]-1,1-dimethyl-piperidin-1-ium-4-carboxamide; formate] | 170 nM | 
4 | Cn1c(-c2ccc(OC(F)F)c(F)c2F)cnc1C(=O)Nc1ccc(C(=O)N2CCN(C(=O)[C@@H]3C[C@@H](O)C[N+]3(C)C)CC2)c(Cl)c1 [Example B41, N-[3-chloro-4-[4-[(2S,4R)-4-hydroxy-1,1-dimethyl-pyrrolidin-1-ium-2-carbonyl]piperazine-1-carbonyl]phenyl]-5-[4-(difluoromethoxy)-2,3-difluoro-phenyl]-1-methyl-imidazole-2-carboxamide; formate] |  | IC90 [2]: 76 nM
5 | Cn1c(-c2ccc(OCC#N)c(F)c2F)cnc1C(=O)Nc1ccc(C(=O)N2CCC(C(=O)N[C@H]3CC[N+](C)(C)C3)CC2)c(Cl)c1 [Example B24, (S)-3-(1-(2-chloro-4-(5-(4-(cyanomethoxy)-2,3-difluorophenyl)-1-methyl-1H-imidazole-2-carboxamido)benzoyl)piperidine-4-carboxamido)-1,1-dimethylpyrrolidin-1-ium formate] | 120 nM | 
6 | COc1ccc(-c2cnc(C(=O)Nc3ccc(C(=O)N4CCN(C(=O)[C@@H]5C[C@H](O)C[N+]5(C)C)CC4)c(Cl)c3)n2C)c(F)c1F [Example B34, N-[3-chloro-4-[4-[(2S,4S)-4-hydroxy-1,1-dimethyl-pyrrolidin-1-ium-2-carbonyl]piperazine-1-carbonyl]phenyl]-5-(2,3-difluoro-4-methoxy-phenyl)-1-methyl-imidazole-2-carboxamide; formate] |  | IC90 [2]: 140 nM
7 | COc1ccc(-c2cnc(C(=O)Nc3ccc(C(=O)N4CCN(C(=O)[C@@H]5C=CC[N+]5(C)C)CC4)c(Cl)c3)n2C)c(F)c1F [Example B49, N-[3-chloro-4-[4-[(2S)-1,1-dimethyl-2,5-dihydropyrrol-1-ium-2-carbonyl]piperazine-1-carbonyl]phenyl]-5-(2,3-difluoro-4-methoxy-phenyl)-1-methyl-imidazole-2-carboxamide formate] |  | IC90 [2]: 120 nM
8 | COc1ccc(-c2cnc(C(=O)Nc3ccc(C(=O)N4CCN(C(=O)[C@@H]5C[C@@H](O)C[N+]5(C)C)CC4)c(Cl)c3)n2C)c(F)c1C(F)(F)F [Example B52, N-[3-chloro-4-[4-[(2S,4R)-4-hydroxy-1,1-dimethyl-pyrrolidin-1-ium-2-carbonyl]piperazine-1-carbonyl]phenyl]-5-[2-fluoro-4-methoxy-3-(trifluoromethyl)phenyl]-1-methyl-imidazole-2-carboxamide; formate] |  | IC90 [2]: 520 nM
9 | COc1ccc(-c2cnc(C(=O)Nc3ccc(C(=O)N4CCN(C(=O)C5CC[N+](C)(CC6CNC6)CC5)CC4)c(Cl)c3)n2C)c(F)c1F (stereo not drawn) [Example C16, N-[4-[4-[1-(azet-idin-3-ylmethyl)-1-methyl-piper-idin-1-ium-4-carbonyl]piper-azine-1-carbon-yl]-3-chloro-phenyl]-5-(2,3-difluoro-4-meth-oxy-phenyl)-1-methyl-imid-azole-2-carbox-amide; formic acid; formate] | 100 nM | 
10 | COc1ccc(-c2cnc(C(=O)Nc3ccc(C(=O)N4CCC(NC(=O)C[N+](C)(C)CC(N)=O)CC4)c(Cl)c3)n2C)c(F)c1F [Example B5, (2-amino-2-oxo-ethyl)-[2-[1-[2-chloro-4-[5-(2,3-difluoro-4-methoxy-phenyl)-1-methyl-imidazole-2-carbonyl]amino]benzoyl]-4-piperidyl]amino]-2-oxo-ethyl]-dimethyl-ammonium; formate] | 120 nM | 

More lines, main results first:

Row | IC90 [1] | Compound | other results
11 | 210 nM | COc1ccc(-c2cnc(C(=O)Nc3ccc(C(=O)N4CCN(CC[N+](C)(C)CC(N)=O)CC4)c(Cl)c3)n2C)c(F)c1F [Example A4, (2-amino-2-oxo-ethyl)-[2-[4-[2-chloro-4-[[5-(2,3-difluoro-4-methoxy-phenyl)-1-methyl-imidazole-2-carbonyl]amino]benzoyl]piperazin-1-yl]ethyl]-dimethyl-ammonium; formate] | 
12 | 250 nM | Cn1c(-c2ccc(OCC#N)c(F)c2F)cnc1C(=O)Nc1ccc(C(=O)N2CCC(C(=O)N3CC([N+](C)(C)C)C3)CC2)c(Cl)c1 [Example B31, [1-[1-[2-chloro-4-[[5-[4-(cyanomethoxy)-2,3-difluoro-phenyl]-1-methyl-imidazole-2-carbonyl]amino]benzoyl]piperidine-4-carbonyl]azetidin-3-yl]-trimethyl-ammonium; formate] | 
13 | 220 nM | Cn1c(-c2ccc(OC(F)F)c(F)c2F)cnc1C(=O)Nc1ccc(C(=O)N2CCN(C(=O)CC3CC[N+](C)(CC4CCNC4)C3)CC2)c(Cl)c1 (stereo not drawn) [Example C18, N-[3-chloro-4-[4-[2-[1-methyl-1-(pyrrolidin-3-yl-methyl)pyrrol-idin-1-ium-3-yl]-acetyl]piperazine-1-carbonyl]phen-yl]-5-[4-(difluoro-methoxy)-2,3-difluoro-phenyl]-1-methyl-imid-azole-2-carbox-amide; 2,2,2-trifluoroacetate; 2,2,2-trifluoro-acetic acid] | 
14 | 250 nM | COc1ccc(-c2cnc(C(=O)Nc3ccc(C(=O)N4CCN(C(=O)C5CCN(C(=O)C[N+](C)(C)CC(N)=O)CC5)CC4)c(Cl)c3)n2C)c(F)c1F [Example C7, (2-amino-2-oxo-ethyl)-[2-[4-[4-[2-chloro-4-[[5-(2,3-difluoro-4-methoxy-phenyl)-1-meth-yl-imidazole-2-carbonyl]amino]-benzoyl]piper-azine-1-carbon-yl]-1-piperidyl]-2-oxo-ethyl]-dimethyl-ammo-nium; formate] | 
15 | 34 nM | Cn1c(-c2ccc(OC(F)F)c(F)c2F)cnc1C(=O)Nc1ccc(C(=O)N2CCN(C(=O)C3CC[N+](C)(CC(N)=O)CC3)CC2)c(Cl)c1 (stereo not drawn) [Example C2, N-[4-[4-[1-(2-amino-2-oxo-ethyl)-1-methyl-piperidin-1-ium-4-carbonyl]-piperazine-1-carbonyl]-3-chloro-phenyl]-5-[4-(difluoro-methoxy)-2,3-difluoro-phen-yl]-1-methyl-imidazole-2-carboxamide; formate] | 
16 | 170 nM | Cn1c(-c2ccc(OCC#N)c(F)c2F)cnc1C(=O)Nc1ccc(C(=O)N2CCN(C(=O)[C@@H]3C[C@](C)(O)C[N+]3(C)C)CC2)c(Cl)c1 [Example B27, (2S,4S)-2-(4-(2-chloro-4-(5-(4-(cyanomethoxy)-2,3-difluorophenyl)-1-methyl-1H-imidazole-2-carboxamido)benzoyl)piperazine-1-carbonyl)-4-hydroxy-1,1,4-trimethylpyrrolidin-1-ium formate] | 
17 | 1500 nM | CCc1cc(NC(=O)c2ncc(-c3ccc(OC)c(F)c3F)n2C)ccc1C(=O)N1CCN(CCC[N+](C)(C)C)CC1 [Example A6, 3-(4-(4-(5-(2,3-difluoro-4-methoxyphenyl)-1-methyl-1H-imidazole-2-carboxamido)-2-ethylbenzoyl)piperazin-1-yl)-N,N,N-trimethylpropan-1-aminium iodide] | 
18 | 120 nM | COc1ccc(-c2cnc(C(=O)Nc3ccc(C(=O)N4CCN(C(=O)[C@@H]5C[C@@H](O)C[N+]5(C)C)CC4)c(Cl)c3)n2C)c(F)c1F [Example B25, (2S,4R)-2-(4-(2-chloro-4-(5-(2,3-difluoro-4-methoxyphenyl)-1-methyl-1H-imidazole-2-carboxamido)benzoyl)piperazine-1-carbonyl)-4-hydroxy-1,1-dimethylpyrrolidin-1-ium formate] | 
19 | 410 nM | Cn1c(-c2ccc(OC(F)F)c(F)c2F)cnc1C(=O)Nc1ccc(C(=O)N2CCN(C(=O)C3CC[N+](C)(CC(=O)O)CC3)CC2)c(Cl)c1 (stereo not drawn) [Example C31, 2-[4-[4-[2-chloro-4-[[5-[4-(difluorometh-oxy)-2,3-difluoro-phen-yl]-1-methyl-imidazole-2-carbonyl]amino]-benzoyl]piper-azine-1-carbon-yl]-1-methyl-piperidin-1-ium-1-yl]acetic acid; 2,2,2-trifluoro-acetate] | 
20 | 140 nM | Cn1c(-c2ccc(OC(F)F)c(F)c2)cnc1C(=O)Nc1ccc(C(=O)N2CCN(C(=O)C[N+](C)(C)C)CC2)c(Cl)c1 [Example B15, [2-[4-[2-chloro-4-[[5-[4-(difluoromethoxy)-3-fluoro-phenyl]-1-methyl-imidazole-2-carbonyl]amino]benzoyl]piperazin-1-yl]-2-oxo-ethyl]-trimethyl-ammonium; formate] | 
21 | 170 nM | Cn1c(-c2ccc(OCF)cc2F)cnc1C(=O)Nc1ccc(C(=O)N2CCN(C(=O)C[N+](C)(C)C)CC2)c(Cl)c1 [Example B22, [2-[4-[2-chloro-4-[5-[2-fluoro-4-(fluoromethoxy)phenyl]-1-methyl-imidazole-2-carbonyl]amino]benzoyl]piperazin-1-yl]-2-oxo-ethyl]-trimethyl-ammonium; formate] | 
